From US20230399312A1, “SUBSTITUTED PYRIMIDINES AND METHODS OF USE” (THERAVANCE BIOPHARMA R&D IP, LLC, priority 2020, published 2023)

Columns and labels:
[1] = molecular target: T1, recombinant human ALK5 (TGF-βR1) protein (Homo sapiens, UniProt P36897); test: Biochemical ALK5 (TGF-βR1) assay to measure pKi (LANCE Ultra ULight kinase assay); settings: apparent pKi, converted from pIC50 by Cheng-Prusoff
T1 construct: purchased Life Technologies PR9075A
T1 sequence (P36897 34-503): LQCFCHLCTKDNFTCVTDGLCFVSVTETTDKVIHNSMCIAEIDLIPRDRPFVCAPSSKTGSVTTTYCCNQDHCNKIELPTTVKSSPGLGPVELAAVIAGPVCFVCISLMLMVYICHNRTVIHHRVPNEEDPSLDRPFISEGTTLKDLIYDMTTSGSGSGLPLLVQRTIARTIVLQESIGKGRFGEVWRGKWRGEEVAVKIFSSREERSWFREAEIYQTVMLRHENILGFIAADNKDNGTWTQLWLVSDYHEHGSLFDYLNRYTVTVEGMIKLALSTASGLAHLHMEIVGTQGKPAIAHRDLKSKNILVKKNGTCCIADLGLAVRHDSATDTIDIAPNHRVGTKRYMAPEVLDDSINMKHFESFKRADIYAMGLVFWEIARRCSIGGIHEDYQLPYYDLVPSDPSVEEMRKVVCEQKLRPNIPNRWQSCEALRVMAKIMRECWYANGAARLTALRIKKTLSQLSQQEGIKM
Method in brief: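 Enzyme preincubated with compound for 60 min at room temperature, then reacted with ATP (125 μM as 5× stock) for 60 min at 37 °C. Stopped with EDTA plus Eu-anti-phospho-Topoisomerase 2-alpha (Thr1342) antibody and read by TR-FRET at 665 nm. pIC50 from a 4-parameter fit, converted to pKi by Cheng-Prusoff.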

[2] = test system: TGF-β-stimulated SMAD3 phosphorylation in BEAS-2B cells; test: Cellular ALK5 potency assay, inhibition of TGF-β stimulated pSMAD3 formation in BEAS-2B cells; type: cell-based; settings: Homo sapiens, pSMAD3, TGF-β 10 ng/mL, read-out: BEAS2B pIC50 (converted)
Method in brief: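 Read-out is AlphaLISA detection of phospho-SMAD3 in lysates of BEAS-2B human lung epithelial cells. Cells are exposed to compound for 1 hour, then to 10 ng/mL TGF-β (final) for 30 minutes. Values are pIC50 from concentration–response curves.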

| Ki [1] | SMILES | IC50 [2] |
| --- | --- | --- |
| 0.398 to 3.16 nM | Cc1cccc(-c2nccc(Nc3ccnc(Nc4ccc(N5CCC(CNCc6ccccc6)CC5)cc4)n3)n2)n1 [Compound 471, N2-[4-[4-[(benzylamino)methyl]-1-piperidyl]phenyl]-N4-[2-(6-methyl-2-pyridyl)pyrimidin-4-yl]pyrimidine-2,4-diamine] | 200 to 1260 nM |
| 0.0398 to 0.316 nM | Cc1cccc(-c2nccc(Nc3ccnc(Nc4ccc(N5CCC(C(=O)OC6CCN(C)C6)CC5)cc4)n3)n2)n1 (stereo not shown) [Compound 472, (1-methylpyrrolidin-3-yl) 1-[4-[[4-[[2-(6-methyl-2-pyridyl)pyrimidin-4-yl]amino]pyrimidin-2-yl]amino]phenyl]piperidine-4-carboxylate] | 25.1 to 158 nM |
| 0.0398 to 0.316 nM | Cc1cccc(-c2nccc(Nc3ccnc(Nc4ccc(N5CCN(C6CNC6)CC5)cc4)n3)n2)n1 [Compound 473, N2-[4-[4-(azetidin-3-yl)piperazin-1-yl]phenyl]-N4-[2-(6-methyl-2-pyridyl)pyrimidin-4-yl]pyrimidine-2,4-diamine] | 200 to 1260 nM |
| ≤ 0.0316 nM | Cc1cccc(-c2nccc(Nc3ccnc(Nc4ccc(CN5CCC(CO)CC5)cc4)n3)n2)n1 [Compound 474, [1-[[4-[[4-[[2-(6-methyl-2-pyridyl)pyrimidin-4-yl]amino]pyrimidin-2-yl]amino]phenyl]methyl]-4-piperidyl]methanol] | 25.1 to 158 nM |
| 0.0398 to 0.316 nM | Cc1cccc(-c2nccc(Nc3ccnc(Nc4ccc(N5CCOCC5)cc4)n3)n2)n1 [Compound 475, N4-(2-(6-methylpyridin-2-yl)pyrimidin-4-yl)-N2-(4-morpholinophenyl)pyrimidine-2,4-diamine] | ≤ 20 nM |
| 0.0398 to 0.316 nM | Cc1cccc(-c2nccc(Nc3ccnc(Nc4ccc(CC5CCNCC5)cc4)n3)n2)n1 [Compound 476, N4-[2-(6-methyl-2-pyridyl)pyrimidin-4-yl]-N2-[4-(4-piperidylmethyl)phenyl] pyrimidine-2,4-diamine] | 25.1 to 158 nM |
| 0.0398 to 0.316 nM | Cc1cccc(-c2nccc(Nc3ccnc(Nc4cccc(NC(=O)NCC5CNC5)c4)n3)n2)n1 [Compound 477, 1-(azetidin-3-ylmethyl)-3-[3-[[4-[[2-(6-methyl-2-pyridyl)pyrimidin-4-yl]amino]pyrimidin-2-yl]amino]phenyl]urea] | ≤ 20 nM |
| 0.0398 to 0.316 nM | Cc1cccc(-c2nccc(Nc3ccnc(Nc4ccc(N5CCN(CCN)CC5)cc4)n3)n2)n1 [Compound 478, N2-[4-[4-(2-aminoethyl)piperazin-1-yl]phenyl]-N4-[2-(6-methyl-2-pyridyl)pyrimidin-4-yl]pyrimidine-2,4-diamine] | 200 to 1260 nM |
| 0.0398 to 0.316 nM | Cc1cccc(-c2nccc(Nc3ccnc(Nc4ccc(N5CCCC(C(=O)O[C@@H]6CCNC6)C5)cc4)n3)n2)n1 (stereo partly drawn) [Compound 479, [(3R)-pyrrolidin-3-yl] 1-[4-[[4-[[2-(6-methyl-2-pyridyl)pyrimidin-4-yl]amino]pyrimidin-2-yl]amino]phenyl]piperidine-3-carboxylate] | 25.1 to 158 nM |
| 0.0398 to 0.316 nM | Cc1cccc(-c2nccc(Nc3ccnc(Nc4ccc(CN5CCNCC5(C)C)cc4)n3)n2)n1 [Compound 480, N2-[4-[(2,2-dimethylpiperazin-1-yl)methyl]phenyl]-N4-[2-(6-methyl-2-pyridyl)pyrimidin-4-yl]pyrimidine-2,4-diamine] | 25.1 to 158 nM |
| 0.398 to 3.16 nM | COC(=O)C1CN(Cc2ccc(Nc3nccc(Nc4ccnc(-c5cccc(C)n5)n4)n3)cc2)CCN1C(C)C (stereo not shown) [Compound 481, methyl 1-isopropyl-4-[[4-[[4-[[2-(6-methyl-2-pyridyl)pyrimidin-4-yl]amino]pyrimidin-2-yl]amino]phenyl]methyl] piperazine-2-carboxylate] | 25.1 to 158 nM |
| 0.0398 to 0.316 nM | Cc1cccc(-c2nc(C)cc(Nc3ccnc(Nc4ccc(N5CCNCC5)cc4)n3)n2)n1 [Compound 482, N4-[6-methyl-2-(6-methyl-2-pyridyl)pyrimidin-4-yl]-N2-(4-piperazin-1-ylphenyl)pyrimidine-2,4-diamine] | 25.1 to 158 nM |
| 0.0398 to 0.316 nM | CNCCN1CCN(c2ccc(Nc3nccc(Nc4ccnc(-c5cccc(C)n5)n4)n3)cc2)CC1 [Compound 483, N2-[4-[4-[2-(methylamino)ethyl]piperazin-1-yl]phenyl]-N4-[2-(6-methyl-2-pyridyl)pyrimidin-4-yl]pyrimidine-2,4-diamine] | 200 to 1260 nM |
| 0.0398 to 0.316 nM | Cc1cccc(-c2nccc(Nc3ccnc(Nc4ccc(CN5CCC(C(=O)O)CC5)cc4)n3)n2)n1 [Compound 484, 1-[[4-[[4-[[2-(6-methyl-2-pyridyl)pyrimidin-4-yl]amino]pyrimidin-2-yl]amino]phenyl]methyl] piperidine-4-carboxylic acid] | 200 to 1260 nM |
| 0.398 to 3.16 nM | Cc1cccc(-c2nccc(Nc3ccnc(Nc4ccc(Cc5ncco5)cc4)n3)n2)n1 [Compound 485, N4-[2-(6-methyl-2-pyridyl)pyrimidin-4-yl]-N2-[4-(oxazol-2-ylmethyl)phenyl]pyrimidine-2,4-diamine] | 25.1 to 158 nM |
| 0.0398 to 0.316 nM | Cc1cccc(-c2nccc(Nc3ccnc(Nc4ccc(CN5CCC[C@H](C(=O)O[C@@H]6CCN(C)C6)C5)cc4)n3)n2)n1 [Compound 486, [(3R)-1-methylpyrrolidin-3-yl] (3S)-1-[[4-[[4-[[2-(6-methyl-2-pyridyl)pyrimidin-4-yl]amino]pyrimidin-2-yl]amino]phenyl]methyl] piperidine-3-carboxylate] | 25.1 to 158 nM |
| 0.0398 to 0.316 nM | Cc1cccc(-c2nccc(Nc3ccnc(Nc4ccc(N5CCN[C@H](C(=O)O)C5)cc4)n3)n2)n1 [Compound 488, (2S)-4-[4-[[4-[[2-(6-methyl-2-pyridyl)pyrimidin-4-yl]amino]pyrimidin-2-yl]amino]phenyl]piperazine-2-carboxylic acid] | 200 to 1260 nM |
| 0.0398 to 0.316 nM | Cc1cccc(-c2nccc(Nc3ccnc(Nc4ccc(CC5CCNC5)cc4)n3)n2)n1 (stereo not shown) [Compound 489, N4-(2-(6-methylpyridin-2-yl)pyrimidin-4-yl)-N2-(4-(pyrrolidin-3-ylmethyl)phenyl)pyrimidine-2,4-diamine] | 25.1 to 158 nM |
| 0.0398 to 0.316 nM | Cc1cccc(-c2nccc(Nc3ccnc(Nc4ccc(NCC5(O)CNC5)cc4)n3)n2)n1 [Compound 490, 3-[[4-[[4-[[2-(6-methyl-2-pyridyl)pyrimidin-4-yl]amino]pyrimidin-2-yl]amino]anilino]methyl] azetidin-3-ol] | 25.1 to 158 nM |
| 0.0398 to 0.316 nM | COC(=O)CC1CN(c2ccc(Nc3nccc(Nc4ccnc(-c5cccc(C)n5)n4)n3)cc2)CCN1 (stereo not shown) [Compound 491, methyl 2-[4-[4-[[4-[[2-(6-methyl-2-pyridyl)pyrimidin-4-yl]amino]pyrimidin-2-yl]amino]phenyl]piperazin-2-yl]acetate] | 25.1 to 158 nM |
| 0.398 to 3.16 nM | Cc1cccc(-c2nccc(Nc3ccnc(Nc4ccc5c(c4)CCCN5)n3)n2)n1 [Compound 492, N4-[2-(6-methyl-2-pyridyl)pyrimidin-4-yl]-N2-(1,2,3,4-tetrahydroquinolin-6-yl)pyrimidine-2,4-diamine] | 25.1 to 158 nM |
| 0.0398 to 0.316 nM | COC1(C)CN(Cc2ccc(Nc3nccc(Nc4ccnc(-c5cccc(C)n5)n4)n3)cc2)C1 [Compound 493, N2-[4-[(3-methoxy-3-methyl-azetidin-1-yl)methyl]phenyl]-N4-[2-(6-methyl-2-pyridyl)pyrimidin-4-yl]pyrimidine-2,4-diamine] | 25.1 to 158 nM |
| 0.0398 to 0.316 nM | Cc1cccc(-c2nccc(Nc3ccnc(Nc4ccc(N5CCN(CC(C)C)CC5)cc4)n3)n2)n1 [Compound 494, N2-[4-(4-isobutylpiperazin-1-yl)phenyl]-N4-[2-(6-methyl-2-pyridyl)pyrimidin-4-yl]pyrimidine-2,4-diamine] | 25.1 to 158 nM |
| 0.0398 to 0.316 nM | Cc1cccc(-c2nccc(Nc3ccnc(Nc4ccc(CN5CCCC(C(=O)NCC6CNC6)C5)cc4)n3)n2)n1 (stereo not shown) [Compound 495, N-(azetidin-3-ylmethyl)-1-[[4-[[4-[[2-(6-methyl-2-pyridyl)pyrimidin-4-yl]amino]pyrimidin-2-yl]amino]phenyl]methyl] piperidine-3-carboxamide] | 25.1 to 158 nM |
| 0.0398 to 0.316 nM | Cc1cccc(-c2nccc(Nc3ccnc(Nc4ccc(N(C)C5CNC5)cc4)n3)n2)n1 [Compound 496, N2-[4-[azetidin-3-yl(methyl)amino]phenyl]-N4-[2-(6-methyl-2-pyridyl)pyrimidin-4-yl]pyrimidine-2,4-diamine] | 25.1 to 158 nM |

| SMILES | Ki [1] | IC50 [2] |
| --- | --- | --- |
| Cc1cccc(-c2nccc(Nc3ccnc(Nc4ccc(Cl)c(CN5C6CCC5CNC6)c4)n3)n2)n1 [Compound 487, N2-[4-chloro-3-(3,8-diazabicyclo[3.2.1]octan-8-ylmethyl)phenyl]-N4-[2-(6-methyl-2-pyridyl)pyrimidin-4-yl]pyrimidine-2,4-diamine] | 0.0398 to 0.316 nM | 25.1 to 158 nM |
